Results on three molecules are retold here after the kinase profiling compilation of Christmann-Franck et al. (2016).

AURKA (human), sequence (O14965 whole entry, looked up): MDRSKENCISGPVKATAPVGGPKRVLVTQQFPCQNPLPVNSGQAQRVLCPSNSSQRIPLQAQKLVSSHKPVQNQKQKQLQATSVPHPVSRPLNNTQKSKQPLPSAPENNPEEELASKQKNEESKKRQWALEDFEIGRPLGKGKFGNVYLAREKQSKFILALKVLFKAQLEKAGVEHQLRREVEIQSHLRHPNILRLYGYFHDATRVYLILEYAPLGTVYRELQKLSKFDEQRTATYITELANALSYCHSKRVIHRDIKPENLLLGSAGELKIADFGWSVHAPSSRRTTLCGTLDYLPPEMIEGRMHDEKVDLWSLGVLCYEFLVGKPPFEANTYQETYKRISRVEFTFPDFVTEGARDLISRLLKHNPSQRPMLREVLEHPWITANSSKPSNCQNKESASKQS
NEK7 (human), sequence (Q8TDX7 whole entry, looked up): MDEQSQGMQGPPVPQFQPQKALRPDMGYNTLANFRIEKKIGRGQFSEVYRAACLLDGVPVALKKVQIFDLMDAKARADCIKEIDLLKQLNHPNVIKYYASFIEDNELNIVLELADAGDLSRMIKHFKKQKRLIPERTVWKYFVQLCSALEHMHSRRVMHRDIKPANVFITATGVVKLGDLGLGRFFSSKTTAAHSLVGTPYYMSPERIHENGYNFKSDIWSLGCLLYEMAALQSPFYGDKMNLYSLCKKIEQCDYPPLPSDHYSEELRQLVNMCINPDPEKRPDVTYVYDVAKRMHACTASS
FYN (human), sequence (P06241 whole entry, looked up): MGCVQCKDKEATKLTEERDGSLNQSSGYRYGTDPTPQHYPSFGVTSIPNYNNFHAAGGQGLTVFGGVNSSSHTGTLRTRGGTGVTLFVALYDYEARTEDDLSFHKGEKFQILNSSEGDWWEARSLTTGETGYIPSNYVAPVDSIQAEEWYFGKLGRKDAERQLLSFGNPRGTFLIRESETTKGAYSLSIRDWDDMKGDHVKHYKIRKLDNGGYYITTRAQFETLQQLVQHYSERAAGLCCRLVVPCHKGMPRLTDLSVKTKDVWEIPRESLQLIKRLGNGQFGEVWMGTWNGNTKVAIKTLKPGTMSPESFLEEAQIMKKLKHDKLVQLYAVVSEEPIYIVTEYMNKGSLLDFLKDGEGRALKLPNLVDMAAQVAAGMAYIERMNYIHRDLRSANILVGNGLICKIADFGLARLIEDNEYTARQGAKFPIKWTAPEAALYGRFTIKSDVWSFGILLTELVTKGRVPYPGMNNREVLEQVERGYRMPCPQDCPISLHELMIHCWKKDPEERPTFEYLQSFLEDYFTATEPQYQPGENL

The first assay addresses STK3 (human) (UniProt Q13188). In words: radiometric filter-binding kinase assay, Kinase HotSpot. The conditions noted are these: compound 0.5 µM; ATP 10 µM.
For the molecule `Cc1ccc(S(=O)(=O)/C=C/C#N)cc1`, the residual activity was found to be 93.6%.
For the molecule `Cc1ccc(NC2=CC(=O)c3sc(C)nc3C2=O)cc1`, the residual activity was found to be 105%.

In another assay the target is FLT3 (human) (UniProt P36888). The description is as above. The settings on record: compound 0.5 µM; ATP 10 µM.
For `CC(=O)c1ccc(N2CCOCC2)cc1O`, the residual activity was determined as 102%.
Still for that read-out and setting: for `Cc1ccc(S(=O)(=O)/C=C/C#N)cc1` the value was 100%.
In the case of `Cc1ccc(NC2=CC(=O)c3sc(C)nc3C2=O)cc1`, the residual activity was found to be 72.5%.

Another assay addresses CAMKK2 (human) (UniProt Q96RR4). The assay is described as above. The conditions noted are these: compound 0.5 µM; ATP 10 µM.
In the case of `CC(=O)c1ccc(N2CCOCC2)cc1O`, the residual activity stood at 115%.
For `Cc1ccc(S(=O)(=O)/C=C/C#N)cc1`, the residual activity was found to be 102%.
In the case of `Cc1ccc(NC2=CC(=O)c3sc(C)nc3C2=O)cc1`, the residual activity turned out to be 92.5%.

The next assay concerns the target ROCK1 (human) (UniProt Q13464). The description is as above. The settings on record: compound 0.5 µM; ATP 10 µM.
For `CC(=O)c1ccc(N2CCOCC2)cc1O`, the residual activity stood at 92.9%.
`Cc1ccc(S(=O)(=O)/C=C/C#N)cc1`: the residual activity amounted to 93.2%.
In the case of `Cc1ccc(NC2=CC(=O)c3sc(C)nc3C2=O)cc1`, the residual activity was 100%.

In another assay the target is STK4 (human) (UniProt Q13043). Described as above. The settings on record: compound 0.5 µM; ATP 10 µM.
Regarding `CC(=O)c1ccc(N2CCOCC2)cc1O`, the residual activity was determined as 102%.
As for `Cc1ccc(S(=O)(=O)/C=C/C#N)cc1`, the residual activity is 94.7%.
The same measure, in the same setting: next, `Cc1ccc(NC2=CC(=O)c3sc(C)nc3C2=O)cc1`: 93.5%.

For the next assay, the target named is EPHA5 (human) (UniProt P54756). The assay is described as above. The conditions noted are these: compound 0.5 µM; ATP 10 µM.
For `CC(=O)c1ccc(N2CCOCC2)cc1O`, the residual activity was found to be 109%.
As for `Cc1ccc(S(=O)(=O)/C=C/C#N)cc1`, the residual activity was determined as 111%.
Regarding `Cc1ccc(NC2=CC(=O)c3sc(C)nc3C2=O)cc1`, the residual activity came to 98.2%.

The target in the next assay is CDK5 CDK5R1 p25 (human) (UniProt Q00535+Q15078). Described as above. The settings on record: compound 0.5 µM; ATP 10 µM.
CDK5 CDK5R1 p25 (human), sequence (Q00535 whole entry, looked up): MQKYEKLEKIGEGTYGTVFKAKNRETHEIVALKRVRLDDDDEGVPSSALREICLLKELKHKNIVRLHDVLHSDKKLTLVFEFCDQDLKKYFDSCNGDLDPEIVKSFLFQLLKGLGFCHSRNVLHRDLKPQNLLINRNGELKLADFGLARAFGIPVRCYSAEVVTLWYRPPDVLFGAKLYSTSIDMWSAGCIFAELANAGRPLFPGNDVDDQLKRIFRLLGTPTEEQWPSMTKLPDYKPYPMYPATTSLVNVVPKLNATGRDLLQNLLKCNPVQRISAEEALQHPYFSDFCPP
CDK5 CDK5R1 p25 (human), sequence (Q15078 whole entry, looked up): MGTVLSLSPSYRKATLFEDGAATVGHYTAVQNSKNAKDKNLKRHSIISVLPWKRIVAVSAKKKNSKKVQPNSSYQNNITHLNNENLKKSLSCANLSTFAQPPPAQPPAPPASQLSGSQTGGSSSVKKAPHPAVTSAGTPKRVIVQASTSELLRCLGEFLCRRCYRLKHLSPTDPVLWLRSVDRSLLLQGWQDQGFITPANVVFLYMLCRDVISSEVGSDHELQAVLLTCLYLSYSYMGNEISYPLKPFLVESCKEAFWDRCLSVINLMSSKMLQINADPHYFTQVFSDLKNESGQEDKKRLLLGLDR
For `CC(=O)c1ccc(N2CCOCC2)cc1O`, the residual activity stood at 99.7%.
Same read-out and setting: next, `Cc1ccc(S(=O)(=O)/C=C/C#N)cc1`: 86.8%; `Cc1ccc(NC2=CC(=O)c3sc(C)nc3C2=O)cc1`: 61.9%.

For the next assay, the target named is MST1R (human) (UniProt Q04912). The assay is described as above. The conditions noted are these: compound 0.5 µM; ATP 10 µM.
MST1R (human), sequence (Q04912 whole entry, looked up): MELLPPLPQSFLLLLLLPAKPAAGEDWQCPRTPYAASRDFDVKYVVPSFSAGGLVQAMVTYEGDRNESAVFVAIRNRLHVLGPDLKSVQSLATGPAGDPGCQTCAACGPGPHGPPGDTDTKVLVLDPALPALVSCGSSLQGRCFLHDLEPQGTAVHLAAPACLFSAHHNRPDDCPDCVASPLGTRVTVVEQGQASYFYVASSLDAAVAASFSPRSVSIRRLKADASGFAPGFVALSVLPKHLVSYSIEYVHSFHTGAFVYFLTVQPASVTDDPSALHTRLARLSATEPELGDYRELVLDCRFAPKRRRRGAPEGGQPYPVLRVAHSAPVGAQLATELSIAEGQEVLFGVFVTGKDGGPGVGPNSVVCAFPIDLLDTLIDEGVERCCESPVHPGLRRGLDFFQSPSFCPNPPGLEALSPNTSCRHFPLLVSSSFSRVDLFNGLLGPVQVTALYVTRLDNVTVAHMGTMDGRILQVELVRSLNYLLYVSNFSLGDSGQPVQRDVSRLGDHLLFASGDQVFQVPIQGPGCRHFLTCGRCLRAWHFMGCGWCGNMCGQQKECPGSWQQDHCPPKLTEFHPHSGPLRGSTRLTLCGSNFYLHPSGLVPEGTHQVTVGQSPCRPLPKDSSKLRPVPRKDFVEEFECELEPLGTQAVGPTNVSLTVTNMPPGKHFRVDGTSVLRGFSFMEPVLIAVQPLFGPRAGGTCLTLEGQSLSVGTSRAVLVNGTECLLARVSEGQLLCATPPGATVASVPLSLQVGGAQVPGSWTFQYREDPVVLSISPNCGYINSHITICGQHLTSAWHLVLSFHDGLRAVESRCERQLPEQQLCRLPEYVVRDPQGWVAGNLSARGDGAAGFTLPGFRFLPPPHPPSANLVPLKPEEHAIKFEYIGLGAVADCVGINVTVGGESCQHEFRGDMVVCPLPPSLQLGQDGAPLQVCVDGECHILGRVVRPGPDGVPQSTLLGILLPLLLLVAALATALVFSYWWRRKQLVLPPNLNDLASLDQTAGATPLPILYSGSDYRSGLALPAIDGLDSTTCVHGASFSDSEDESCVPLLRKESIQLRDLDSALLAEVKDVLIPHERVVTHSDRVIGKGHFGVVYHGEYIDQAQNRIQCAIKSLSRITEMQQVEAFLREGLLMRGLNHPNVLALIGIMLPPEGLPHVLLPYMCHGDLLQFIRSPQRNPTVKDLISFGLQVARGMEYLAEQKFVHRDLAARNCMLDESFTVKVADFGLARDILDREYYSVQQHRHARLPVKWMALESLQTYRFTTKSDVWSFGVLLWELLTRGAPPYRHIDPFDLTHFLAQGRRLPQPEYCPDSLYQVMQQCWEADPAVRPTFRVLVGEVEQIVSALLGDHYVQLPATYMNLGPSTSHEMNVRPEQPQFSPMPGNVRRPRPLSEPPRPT
As to `CC(=O)c1ccc(N2CCOCC2)cc1O`, the residual activity was found to be 104%.
For `Cc1ccc(S(=O)(=O)/C=C/C#N)cc1`, the residual activity is 113%.
Turning to `Cc1ccc(NC2=CC(=O)c3sc(C)nc3C2=O)cc1`, the residual activity was found to be 88.9%.

The target of a further assay is HIPK3 (human) (UniProt Q9H422). Described as above. The settings on record: compound 0.5 µM; ATP 10 µM.
As to `CC(=O)c1ccc(N2CCOCC2)cc1O`, the residual activity came to 101%.
For `Cc1ccc(S(=O)(=O)/C=C/C#N)cc1`, the residual activity was found to be 100%.
Turning to `Cc1ccc(NC2=CC(=O)c3sc(C)nc3C2=O)cc1`, the residual activity was determined as 101%.

In a further assay the target is GSK3A (human) (UniProt P49840). The assay is described as above. The settings on record: compound 0.5 µM; ATP 10 µM.
GSK3A (human), sequence (P49840 whole entry, looked up): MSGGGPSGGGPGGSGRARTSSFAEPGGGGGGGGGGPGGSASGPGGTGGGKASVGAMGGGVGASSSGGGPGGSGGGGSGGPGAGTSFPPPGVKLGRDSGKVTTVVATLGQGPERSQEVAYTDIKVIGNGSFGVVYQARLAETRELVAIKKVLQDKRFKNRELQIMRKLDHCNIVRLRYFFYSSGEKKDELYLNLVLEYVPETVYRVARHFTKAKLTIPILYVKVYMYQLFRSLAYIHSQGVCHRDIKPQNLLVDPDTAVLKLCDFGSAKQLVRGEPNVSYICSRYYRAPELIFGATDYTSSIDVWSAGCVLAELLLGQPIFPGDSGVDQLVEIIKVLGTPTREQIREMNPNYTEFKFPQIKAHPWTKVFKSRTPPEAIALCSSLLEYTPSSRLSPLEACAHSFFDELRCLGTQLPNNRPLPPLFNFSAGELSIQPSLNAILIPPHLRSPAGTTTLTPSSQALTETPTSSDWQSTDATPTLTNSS
With `CC(=O)c1ccc(N2CCOCC2)cc1O`, the residual activity was found to be 101%.
`Cc1ccc(S(=O)(=O)/C=C/C#N)cc1`: the residual activity was 106%.
In the case of `Cc1ccc(NC2=CC(=O)c3sc(C)nc3C2=O)cc1`, the residual activity came to 102%.

The next assay addresses FYN (human) (UniProt P06241). Described as above. The conditions noted are these: compound 0.5 µM; ATP 10 µM.
`CC(=O)c1ccc(N2CCOCC2)cc1O`: the residual activity worked out at 103%.
As for `Cc1ccc(S(=O)(=O)/C=C/C#N)cc1`, the residual activity was 95.4%.
Consider `Cc1ccc(NC2=CC(=O)c3sc(C)nc3C2=O)cc1`, for which the residual activity came out at 95.6%.

The target in the next assay is EPHA3 (human) (UniProt P29320). The description is as above. The conditions noted are these: compound 0.5 µM; ATP 10 µM.
`CC(=O)c1ccc(N2CCOCC2)cc1O`: the residual activity is 108%.
Consider `Cc1ccc(S(=O)(=O)/C=C/C#N)cc1`, for which the residual activity came to 95%.
As for `Cc1ccc(NC2=CC(=O)c3sc(C)nc3C2=O)cc1`, the residual activity came out at 96.6%.

The next assay deals with PKN1 (human) (UniProt Q16512). The assay is described as above. The settings on record: compound 0.5 µM; ATP 10 µM.
Regarding `CC(=O)c1ccc(N2CCOCC2)cc1O`, the residual activity was found to be 108%.
As to `Cc1ccc(S(=O)(=O)/C=C/C#N)cc1`, the residual activity worked out at 92.1%.
The same measure, in the same setting: for `Cc1ccc(NC2=CC(=O)c3sc(C)nc3C2=O)cc1` the value was 98.9%.

Another assay has as its target NEK7 (human) (UniProt Q8TDX7). The description is as above. The settings on record: compound 0.5 µM; ATP 10 µM.
For `CC(=O)c1ccc(N2CCOCC2)cc1O`, the residual activity is 101%.
In the case of `Cc1ccc(S(=O)(=O)/C=C/C#N)cc1`, the residual activity is 93.4%.
As for `Cc1ccc(NC2=CC(=O)c3sc(C)nc3C2=O)cc1`, the residual activity stood at 96.9%.

Another assay addresses PDGFRA (human) (UniProt P16234). The description is as above. The settings on record: compound 0.5 µM; ATP 10 µM.
For the molecule `CC(=O)c1ccc(N2CCOCC2)cc1O`, the residual activity came to 94.7%.
Turning to `Cc1ccc(S(=O)(=O)/C=C/C#N)cc1`, the residual activity was found to be 94.2%.
Regarding `Cc1ccc(NC2=CC(=O)c3sc(C)nc3C2=O)cc1`, the residual activity is 85.9%.

Another assay addresses STK39 (human) (UniProt Q9UEW8). Described as above. The settings on record: compound 0.5 µM; ATP 10 µM.
Regarding `CC(=O)c1ccc(N2CCOCC2)cc1O`, the residual activity amounted to 90.9%.
Still for that read-out and setting: next, `Cc1ccc(S(=O)(=O)/C=C/C#N)cc1`: 83.7%.
For the molecule `Cc1ccc(NC2=CC(=O)c3sc(C)nc3C2=O)cc1`, the residual activity is 93.4%.

A further assay has as its target EPHA7 (human) (UniProt Q15375). The description is as above. The settings on record: compound 0.5 µM; ATP 10 µM.
Turning to `CC(=O)c1ccc(N2CCOCC2)cc1O`, the residual activity is 95.5%.
As for `Cc1ccc(S(=O)(=O)/C=C/C#N)cc1`, the residual activity came out at 99.8%.
With `Cc1ccc(NC2=CC(=O)c3sc(C)nc3C2=O)cc1`, the residual activity is 92.3%.

In the next assay the target is PDPK1 (human) (UniProt O15530). The assay is described as above. The conditions noted are these: compound 0.5 µM; ATP 10 µM.
PDPK1 (human), sequence (O15530 whole entry, looked up): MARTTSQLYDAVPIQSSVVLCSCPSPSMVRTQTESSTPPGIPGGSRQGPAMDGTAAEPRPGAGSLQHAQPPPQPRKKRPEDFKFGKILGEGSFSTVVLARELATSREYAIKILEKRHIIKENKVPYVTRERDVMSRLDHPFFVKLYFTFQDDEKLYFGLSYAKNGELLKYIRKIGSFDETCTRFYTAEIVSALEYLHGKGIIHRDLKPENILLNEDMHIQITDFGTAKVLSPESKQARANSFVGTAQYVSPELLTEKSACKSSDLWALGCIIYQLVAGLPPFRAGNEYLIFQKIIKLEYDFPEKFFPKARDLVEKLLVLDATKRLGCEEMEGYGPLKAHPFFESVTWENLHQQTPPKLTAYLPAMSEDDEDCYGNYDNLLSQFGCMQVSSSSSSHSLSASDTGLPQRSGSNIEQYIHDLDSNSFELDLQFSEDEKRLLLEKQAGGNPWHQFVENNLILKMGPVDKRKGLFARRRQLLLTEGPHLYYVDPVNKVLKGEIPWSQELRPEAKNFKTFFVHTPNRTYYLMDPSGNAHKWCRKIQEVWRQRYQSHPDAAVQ
On to `CC(=O)c1ccc(N2CCOCC2)cc1O`, for which the residual activity came to 111%.
On to `Cc1ccc(S(=O)(=O)/C=C/C#N)cc1`, for which the residual activity was found to be 102%.
On to `Cc1ccc(NC2=CC(=O)c3sc(C)nc3C2=O)cc1`, for which the residual activity was 88.7%.

A further assay deals with STK25 (human) (UniProt O00506). The assay is described as above. The settings on record: compound 0.5 µM; ATP 10 µM.
STK25 (human), sequence (O00506 whole entry, looked up): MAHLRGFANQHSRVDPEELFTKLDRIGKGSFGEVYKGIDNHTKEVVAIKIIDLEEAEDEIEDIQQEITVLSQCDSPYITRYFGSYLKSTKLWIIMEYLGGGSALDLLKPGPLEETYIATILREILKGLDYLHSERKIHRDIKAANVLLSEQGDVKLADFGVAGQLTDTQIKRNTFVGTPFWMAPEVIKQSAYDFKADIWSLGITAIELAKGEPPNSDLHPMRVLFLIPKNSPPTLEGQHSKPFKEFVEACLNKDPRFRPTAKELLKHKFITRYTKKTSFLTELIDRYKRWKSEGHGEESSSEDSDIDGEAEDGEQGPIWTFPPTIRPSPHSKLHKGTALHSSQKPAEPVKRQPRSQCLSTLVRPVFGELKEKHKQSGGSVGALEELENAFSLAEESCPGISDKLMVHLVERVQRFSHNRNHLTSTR
Consider `CC(=O)c1ccc(N2CCOCC2)cc1O`, for which the residual activity is 90.9%.
Regarding `Cc1ccc(S(=O)(=O)/C=C/C#N)cc1`, the residual activity was 89.6%.
On the same count and under the same terms, for `Cc1ccc(NC2=CC(=O)c3sc(C)nc3C2=O)cc1` the value was 93.4%.

A further assay concerns the target SIK2 (human) (UniProt Q9H0K1). The description is as above. The conditions noted are these: compound 0.5 µM; ATP 10 µM.
As to `CC(=O)c1ccc(N2CCOCC2)cc1O`, the residual activity is 87%.
In the case of `Cc1ccc(S(=O)(=O)/C=C/C#N)cc1`, the residual activity was found to be 106%.
For the molecule `Cc1ccc(NC2=CC(=O)c3sc(C)nc3C2=O)cc1`, the residual activity was 118%.

Another assay concerns the target AURKA (human) (UniProt O14965). The description is as above. The settings on record: compound 0.5 µM; ATP 10 µM.
As for `CC(=O)c1ccc(N2CCOCC2)cc1O`, the residual activity is 132%.
Regarding `Cc1ccc(S(=O)(=O)/C=C/C#N)cc1`, the residual activity came out at 111%.
The same measure, in the same setting: for `Cc1ccc(NC2=CC(=O)c3sc(C)nc3C2=O)cc1` the value was 110%.

One may read the residual activity as the signal under treatment as a percentage of the control signal.
